# Assay results reported in PubChem BioAssay AID1645862 (Buhrlage Lab, Dana-Farber Cancer Institute and Novartis …, 2021).
# Activity calls are given as the source filed them. The rule behind the calls is not given here. Bridge positions count the residues as written; N and C are the ends. Square brackets hold non-standard residues; d marks the D form. Peptide text beside a SMILES is read from it. * marks the point of attachment. ξ: configuration not given here. d(aIle) = CC[C@H](C)[C@@H](N)C(=O)O; d(aThr) = C[C@@H](O)[C@@H](N)C(=O)O; X1 = CCCCCCCCCCCC(O)CC(=O)*; ξL = CC(C)CC(N)C(=O)O
# Molecular target: Ubiquitin carboxyl-terminal hydrolase 8 (Homo sapiens) (UniProt P40818)
# Assay: Ubiquitin-specific protease 8 inhibitors, concentration-effect, biochemical, validation of initial actives (AID 1645862);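 note: potency reflects inhibition of USP8 cleavage of a ubiquitin rhodamine substrate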
# Conditions: recombinant USP8 deubiquitinase activity assay
# Ubiquitin carboxyl-terminal hydrolase 8 (Homo sapiens), sequence (P40818 whole entry, looked up): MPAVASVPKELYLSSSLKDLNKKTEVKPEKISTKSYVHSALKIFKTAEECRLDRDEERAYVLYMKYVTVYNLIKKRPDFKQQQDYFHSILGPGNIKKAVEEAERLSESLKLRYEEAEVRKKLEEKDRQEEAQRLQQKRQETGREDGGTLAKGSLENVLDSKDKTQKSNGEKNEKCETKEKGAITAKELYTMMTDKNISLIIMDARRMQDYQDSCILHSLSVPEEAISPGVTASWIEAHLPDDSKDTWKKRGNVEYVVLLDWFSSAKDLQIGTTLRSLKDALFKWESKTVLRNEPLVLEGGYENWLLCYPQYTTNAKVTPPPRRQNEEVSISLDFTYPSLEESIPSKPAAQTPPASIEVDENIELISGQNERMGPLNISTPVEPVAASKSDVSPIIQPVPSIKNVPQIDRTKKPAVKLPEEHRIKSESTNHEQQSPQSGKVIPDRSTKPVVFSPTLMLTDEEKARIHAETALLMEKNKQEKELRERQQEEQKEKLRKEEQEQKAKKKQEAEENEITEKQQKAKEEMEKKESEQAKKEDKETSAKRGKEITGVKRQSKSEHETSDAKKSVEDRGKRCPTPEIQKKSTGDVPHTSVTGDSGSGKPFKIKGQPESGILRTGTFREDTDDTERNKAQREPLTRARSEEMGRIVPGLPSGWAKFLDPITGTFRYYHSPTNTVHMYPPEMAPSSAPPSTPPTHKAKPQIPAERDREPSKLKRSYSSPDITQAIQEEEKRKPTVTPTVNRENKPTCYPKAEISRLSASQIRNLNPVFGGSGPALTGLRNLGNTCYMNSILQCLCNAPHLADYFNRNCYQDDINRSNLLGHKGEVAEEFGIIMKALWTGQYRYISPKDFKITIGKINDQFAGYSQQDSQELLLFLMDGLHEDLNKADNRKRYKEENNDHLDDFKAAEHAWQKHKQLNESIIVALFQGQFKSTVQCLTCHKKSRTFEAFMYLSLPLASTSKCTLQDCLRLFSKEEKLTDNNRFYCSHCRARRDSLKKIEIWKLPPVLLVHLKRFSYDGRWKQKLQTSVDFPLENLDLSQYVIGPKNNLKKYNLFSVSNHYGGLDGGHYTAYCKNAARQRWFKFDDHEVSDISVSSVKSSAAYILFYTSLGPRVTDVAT
row,SMILES,IC50
1,O=C(Cn1c(=O)[nH]c2ccccc2c1=O)NCc1ccccc1Cl,> 40 µM (inactive)
2,O=C(Nc1cccc(Br)c1)c1cc(-c2cccnc2)n[nH]1,33.6 µM
3,O=C(Cn1c(=O)[nH]c2c(-c3ccccc3)c[nH]c2c1=O)NCc1ccccc1Cl,> 40 µM (inactive)
4,COc1ccc(C(CNC(=O)c2cc(-c3ccc(Cl)cc3)on2)N2CCOCC2)cc1 (stereo not drawn),> 40 µM (inactive)
5,Cc1nc(-c2ccc(Cl)cc2)oc1C(=O)Nc1ccc(Cl)cc1,> 40 µM (inactive)
6,Cc1ccc2c(c1)c(=O)c(C(=O)c1ccccc1)cn2CC(=O)Nc1ccc2c(c1)OCO2,> 40 µM (inactive)
7,Cc1ccc(-c2nc(NC(=O)COc3ccc(Cl)cc3)no2)cc1,9.1 µM
8,COc1cc(NC(=O)Cc2ccccc2)ccc1NC(=O)c1cc2ccccc2o1,> 40 µM (inactive)
9,c1ccc2sc(-c3csc(-c4ccc5c(c4)OCCO5)n3)nc2c1,> 40 µM (inactive)
10,CCc1cccc(C)c1NC(=O)Cn1nc2ccc(C(=O)NCc3ccccc3)cn2c1=O,> 40 µM (inactive)
11,O=C(c1cccnc1)N1CCCC(Cc2cc(-c3ncc[nH]3)ncn2)C1 (stereo not drawn),> 40 µM (inactive)
12,COc1ccc(NC(=O)Cn2c(=O)n(CCCCC(=O)NCc3ccco3)c(=O)c3ccccc32)cc1Cl,> 40 µM (inactive)
13,COc1ccc(C(NC(=O)c2nc3n(n2)-c2ccccc2S(=O)(=O)N3)C(C)C)cc1 (stereo not drawn),> 40 µM (inactive)
14,O=C(c1ccco1)N1CCC2(CC1)CC1(CO2)Nc2ccccc2-n2cccc21 (stereo not drawn),22.6 µM
15,CNC(=O)c1cc2nc(N(C)C)n(-c3ccc(F)cc3)c2s1,> 40 µM (inactive)
16,O=C(CC1C(=O)N(C2CCCC2)c2nc3ccccc3n21)Nc1ccccc1 (stereo not drawn),> 40 µM (inactive)
17,COc1ccc(-c2cc3nc([C@H](C)NC(=O)Cc4ccccc4C)nn3cn2)cc1,> 40 µM (inactive)
18,Cc1ccc(CNC(=O)c2cccc(N3C(=O)N4CCc5c([nH]c6ccccc56)[C@@]4(C)C3=O)c2)cc1,> 40 µM (inactive)
19,Cn1c(C(=O)NCc2ccccn2)cc2c(=O)[nH]c3ccccc3c21,> 40 µM (inactive)
20,CC(=O)NS(=O)(=O)c1ccc(NC(=O)/C=C/c2cn(-c3ccccc3)nc2-c2ccccc2)cc1,29.4 µM
21,CC(=O)Nc1ccc(C(=O)/C=C2\NCCc3cc4c(cc32)OCCCO4)cc1,> 40 µM (inactive)
22,Cc1ccc(NC(=O)Cn2cc(C(=O)c3ccccc3)c(=O)c3cc(C)ccc32)cc1,39.6 µM

row,SMILES,IC50
1,Fc1cc(F)c2[nH]cc(-c3nnnn3-c3ccc4ccccc4c3)c2c1,> 40 µM (inactive)
2,O=c1cc(-c2ccc(O)c(O)c2)oc2cc(O)cc(O)c12,2.07 µM
3,CCCc1nnc(NC(=O)c2cc(-c3ccccc3O)n[nH]2)s1,> 40 µM (inactive)
4,Cn1c2ccccc2c(=O)c2c(=O)n(-c3cccc(Cl)c3)c(-c3cccs3)nc21,4.52 µM
5,O=C(Nc1ccc2c(c1)OCCO2)C1CCC(Cn2cnc3ccccc3c2=O)CC1 (stereo not drawn),> 40 µM (inactive)
6,O=C(CCc1nnc2n(Cc3ccccc3Cl)c(=O)c3ccccc3n12)NCc1ccccc1,> 40 µM (inactive)
7,CCOc1ccc(NC(=O)Cn2c(-c3ccccc3)cc(C(C)=O)c2C)cc1,> 40 µM (inactive)
8,CC(C)NC(=O)Cn1ccn2nc(-c3ccc(Cl)cc3)cc2c1=O,> 40 µM (inactive)
9,CCOc1cc2c(cc1OCC)C(c1cc3c(cc1Br)OCO3)NCC2 (stereo not drawn),> 40 µM (inactive)
10,CCOc1ccc2[nH]c(=O)c(-c3nc4ccc(C)cn4c3NCc3ccccc3)cc2c1,> 40 µM (inactive)
11,Cc1ccc(S(=O)(=O)Nc2cccc(Cl)c2)cc1NC(=O)CCC(=O)c1ccc(Cl)cc1,> 40 µM (inactive)
12,COc1ccccc1CNC(=O)CCCCn1c(=O)c2ccccc2n(Cc2ccc(C)cc2)c1=O,> 40 µM (inactive)
13,Cc1ccc(-c2nn(C(C)(C)C)c3ncnc(NS(=O)(=O)c4ccc(Cl)cc4)c23)cc1,> 40 µM (inactive)
14,O=C(COc1ccc(Cl)cc1)Nc1noc(-c2ccccc2)n1,39.3 µM
15,COc1cccc(NC(=O)c2cnc(N3CCCC3)nc2C)c1,> 40 µM (inactive)
16,CCn1c(SCC(=O)c2c(N)n(CC(C)C)c(=O)n(C)c2=O)nnc1-c1ccccc1,> 40 µM (inactive)
17,O=C(O)C1C(C(=O)Nc2ccccc2)C2(c3ccccc3)C(=O)C1(c1ccccc1)C(c1ccccc1)=C2c1ccccc1 (stereo not drawn),15.4 µM
18,NS(=O)(=O)c1cccc(NC(=O)/C=C/c2cn(-c3ccccc3)nc2-c2cccc([N+](=O)[O-])c2)c1,> 40 µM (inactive)
19,C=C/C(C)=C/[C@@]1(C)SC(=O)C(C)=C1O,14.5 µM
20,COc1ccc(-n2ccn3c(CCC(=O)Nc4cccc(C)c4)nnc3c2=O)cc1,> 40 µM (inactive)
21,COc1cccc(C2c3[nH]c4ccccc4c3C[C@@H]3C(=O)N(CC(O)c4ccccc4)CC(=O)N23)c1 (stereo partly drawn),> 40 µM (inactive)
22,O=C(Nc1cccc(-c2nc3cnccc3o2)c1)c1ccc(Br)o1,> 40 µM (inactive)

row,SMILES,IC50
1,CCOc1ccc(CCNC(=O)Cn2c(-c3ccc(F)cc3)cc(C(C)=O)c2C)cc1OCC,> 40 µM (inactive)
2,COc1ccc(C)cc1NC(=O)C1CC(=O)Nc2nc3ccccc3n21 (stereo not drawn),> 40 µM (inactive)
3,COc1ccc(-c2nc(-c3nnn(Cc4ccc(F)cc4)c3C)no2)c(OC)c1,> 40 µM (inactive)
4,CCCCCCCCCCCC(O)CC(=O)N[C@@H](CC(C)C)C(=O)N[C@H](CCC(=O)O)C(=O)N[C@H]1C(=O)N[C@H]([C@@H](C)CC)C(=O)NC(CC(C)C)C(=O)N[C@H](CO)C(=O)N[C@@H](CC(C)C)C(=O)N[C@@H](CC(C)C)C(=O)N[C@H](CO)C(=O)N[C@@H](C(C)C)C(=O)O[C@@H]1C (stereo partly drawn) (X1-L[dE][d(aThr)][d(aIle)][ξL][dS]LL[dS]V; ester 3-C),> 40 µM (inactive)
5,COc1ccc(NC(=O)Cn2cc(C(=O)c3ccc(F)cc3)c(=O)c3cc(C)ccc32)cc1,> 40 µM (inactive)
6,O=C(Nc1cccc([N+](=O)[O-])c1)Nc1ccc2snnc2c1,14.8 µM
7,O=C(NCc1ccc2c(c1)OCO2)c1cn(-c2cccc(Cl)c2)nn1,> 40 µM (inactive)
8,CCOCc1ccc(C(=O)N[C@H](C)c2nc3cc(-c4ccc(OC)cc4)ncn3n2)cc1,> 40 µM (inactive)
9,Cc1ccc(-c2nnc3ccc(SCC(=O)N4CCCc5ccccc54)nn23)cc1,> 40 µM (inactive)
10,Cc1ccc(NC(=O)Cn2cnc3c(c(C)c(C)n3-c3ccccc3)c2=O)c(C)c1,> 40 µM (inactive)
11,Cc1ccccc1NC(=O)Cc1csc2nc(-c3ccc(F)cc3)cn12,> 40 µM (inactive)
12,COCCCNC(=O)c1ccc(Cn2c(=O)c3ccccc3n(CC(=O)Nc3ccc(OC)cc3)c2=O)cc1,> 40 µM (inactive)
13,Cc1ccc(CNC(=O)CCCn2c(=O)c3sccc3n(CC(=O)Nc3cc(Cl)ccc3C)c2=O)cc1,> 40 µM (inactive)
14,CC(NC(=O)c1ccccc1)c1nc2ccccc2n1CC(=O)Nc1ccc2c(c1)OCO2 (stereo not drawn),> 40 µM (inactive)
15,Cc1ccc2nc(CNc3ccc(F)cc3C)cc(=O)n2c1,> 40 µM (inactive)
16,O=C(Cn1c(=O)n(Cc2ccc(C(=O)NCc3ccco3)cc2)c(=O)c2ccccc21)Nc1ccc2c(c1)OCCO2,> 40 µM (inactive)
17,Fc1ccccc1-c1nnc(C2(c3ccc4c(c3)OCO4)CCOCC2)o1,> 40 µM (inactive)
18,Cc1sc(NC(=O)c2ccc(S(=O)(=O)N(C)Cc3ccccc3)cc2)c(C(N)=O)c1C,> 40 µM (inactive)
19,O=C(c1ccc2cc[nH]c2c1)N1CCC(Nc2cccnc2)C1 (stereo not drawn),> 40 µM (inactive)
20,CCc1ccc(OCCn2c(CCNC(=O)C3CCCCC3)nc3ccccc32)cc1,> 40 µM (inactive)
21,Cc1ccc2[nH]c(=O)c(-c3nc4ccc(C)cn4c3NCc3ccc(F)cc3)cc2c1,> 40 µM (inactive)
22,O=C(CSc1nnc2c3ccccc3nc(-c3ccco3)n12)N1CCCc2ccccc21,> 40 µM (inactive)

row,SMILES,IC50
1,COCCCN1CCS(=O)(=O)c2c(Cl)c(F)nc(Oc3ccc(C#N)cc3)c21,> 40 µM (inactive)
2,Cc1sc(NC(=O)Cn2nnc3ccccc32)nc1-c1ccc2c(c1)CCN2C(=O)c1ccccc1F,> 40 µM (inactive)
3,CCOc1ccc(-n2c(SCC(=O)Nc3ccc(C)cc3)nnc2-c2c[nH]c3ccccc23)cc1,28.1 µM
4,COc1ccc(-c2cc3nc([C@H](C)NC(=O)Cc4cccc(F)c4)nn3cn2)cc1,> 40 µM (inactive)
5,COc1ccc(C2NC(=O)NC(C)=C2C(=O)OCC2CCCCC2)cc1OC (stereo not drawn),> 40 µM (inactive)
6,O=C(COc1ccc(Cl)cc1Cl)Nc1ccc2[nH]c(=O)[nH]c2c1,> 40 µM (inactive)
7,O=C(c1ccccc1CN1CCOCC1)N1CCOCC2(C1)CN(c1ccc(F)cc1)C(=O)O2 (stereo not drawn),> 40 µM (inactive)
8,Cc1ccc(-c2n[nH]n3c2nc(=O)c2ccc(C(=O)NC4CCCCC4)cc23)cc1,> 40 µM (inactive)
9,O=C(COc1ccc(N2CC(C(=O)NCc3ccccc3)CC2=O)cc1)Nc1ccc(F)cc1 (stereo not drawn),> 40 µM (inactive)
10,C/C(=C\Cc1c(O)cc(C)c(C=O)c1O)CC[C@@]1(C)[C@H](C)CCC(=O)[C@@H]1C,> 40 µM (inactive)
11,COc1cccc(N2CCCN(C(=O)c3ccc4nc(C)[nH]c4c3)CC2)c1,> 40 µM (inactive)
12,Cc1cc(C)c(NC(=O)Cn2c(=O)n(CCC(=O)NCc3ccc4c(c3)OCO4)c(=O)c3sccc32)c(C)c1,> 40 µM (inactive)
13,O=C(COc1ccc(N2CC(C(=O)NCc3ccccc3)CC2=O)cc1)Nc1ccccc1Cl (stereo not drawn),> 40 µM (inactive)
14,Cc1cc(O)c2c3c(c(O)cc2c1)C(=O)c1c(O)cccc1C3=O,1.46 µM
15,O=C(Nc1ccccc1F)c1nc(-c2cn(-c3ccc(F)cc3)nn2)no1,22.4 µM
16,O=C(COc1ccc(Cl)cc1Cl)Nc1ccccc1-c1nc2ccccc2[nH]1,> 40 µM (inactive)
17,CCOc1ccc2[nH]c3c(=O)n(CCc4ccc(OC)cc4)cnc3c2c1,> 40 µM (inactive)
18,Cc1cc(C)c(NC(=O)Cn2c(SCc3cccc(F)c3)nc3cccnc32)c(C)c1,> 40 µM (inactive)
19,Cc1nc2cc(-c3noc(-c4cccc5[nH]ccc45)n3)ccc2o1,> 40 µM (inactive)
20,CCCCOc1ccc(-c2cc3n(c(=N)c2C#N)CCc2cc4c(cc2-3)OCCCO4)cc1OC,> 40 µM (inactive)
21,COc1ccccc1C(=O)Nc1ccc(Oc2ncnc3sc(-c4ccccc4)cc23)cc1,> 40 µM (inactive)
22,O=C(Nc1ccccc1C(=O)NC1CCSC1)c1ccc([N+](=O)[O-])cc1 (stereo not drawn),> 40 µM (inactive)
